Assay results taken from patent publication US6528251B2, “Method of managing the chemotherapy of patients who are HIV positive based on the phenotypic drug sensitivity of human HIV strains” (Virco N.V., priority 1996, dated 2003).
Where two headings read alike, the source gives them in different places.

Assays:
Format in all cases: cell-based, HIV-1
[1] = test system: recombinant virus from patient viral RNA (Example 11); test: Recombinant virus assay (MT4/MTT), patient of Example 11 (therapy history RT and protease inhibitors); details: for IC50: Human immunodeficiency virus 1, Table 7, Example 11 patient virus
Procedure: (§1) RNA was isolated from 100 μl of plasma according to the method described by Boom, R. et al. (1990, supra), and was reverse transcribed with the GeneAmp reverse transcriptase kit (Perkin Elmer) as described by the manufacturer and using an HIV-1 specific downstream primer (OUT3: 5′-CATTGCTCTCCAATTACTGTGATATTTCTCATC-3′; SEQ ID NO: 1). PCR on reverse transcribed RNA was performed with inner and outer primers as described by Kellam, P. and Larder, B. A. (1994, supra). After chloroform extraction and centrifugation on Centricon 100 columns or centrifugation on anion-exchange spin columns (Quiagen), the isolated PCR product was ready for use in the transfection reactions.
(§2) MT4 cells were subcultured at a density of 250,000 cells/ml before transfection (exponential growth phase). Cells were pelleted and resuspended in phosphate buffered saline (PBS) at a concentration of […]. A 0.8 ml portion (2.5 10E6 cells/ml) was used for each transfection. Transfection was performed with the Bio-Rad Gene pulser making use of 0.4 cm electrode cuvettes. Cells were electroporated in the presence of […] of linearised pHIVΔRT plasmid and approximately 5 μg of RT PCR product at 250SF and 300 V, followed by a 30-min incubation at room temperature. Subsequently, 10 ml of fresh culture medium was added to the cell suspension and incubation was performed at 37° C. in a humidified atmosphere of 5% CO2.
(§3) During 7 to 10 days following the transfection, cells were monitored for the appearance of cytopathogenic effect (CPE). In the absence thereof, cells were subcultured in different flasks. Subsequently, culture supernatants of transfected cells were used to create a stock of recombinant virus and stored in 1.5 ml aliquots at −70° C.
(§4) After titration of the new viruses, the stocks were used for antiviral experiments in the presence of serial dilutions of different HIV inhibitors. Titres of the harvested supematants were determined by limited serial dilution titration of virus in MT4 cells.
(§5) Viruses with a useful titre were used in antiviral experiments. For this purpose, 96-well microtitre plates were filled with 100μl of complete culture medium. Subsequently, stock solutions of compounds were added in 25 μl volumes to series of duplicate wells. HIV- and mock-infected cell samples were included for each drug (or drug combination). Exponentially growing MT4 cells were then transferred to the microtitre plates at a density of 150,000 cells/ml. The cell cultures were then incubated at 37° C. in a humidified atmosphere of 5% CO2. Five days after infection, the viability of the mock- and HIV-infected cells was examined spectrophotometrically by the M1T method (Pauwels, R. et al. J. Virol. Meth. (1988), 20: 309-321) as described in Section 6 below.
(§6) To each well of the microtiter plates, 20 μl of a solution of MTT (7.5 mg/ml in PBS) was added. The plates were further incubated at 37° C. for 1 h. Then, 150 μl of medium was removed without disturbing the MT4 cell clusters containing the formazan crystals. Solubilization of the formazan crystals was achieved by adding 100 μl 5% Triton X-100 in acidified isopropanol (5 ml concentrated HCl per liter solvent). Complete dissolution of the formazan crystals was obtained after the plates had been placed on a plate shaker for 10 min. Finally the absorbances were read at two wavelengths (540 and 690 nm). From these optical density (OD) data, 50% inhibitory (IC50) and 50% cytotoxic (CC50) concentrations were derived.
An HIV infected patient with a therapy history including RT and protease inhibitors donated plasma whose susceptibility to a number of RT inhibitors and protease inhibitors was determined according to the protocol set out in Example 1. Recombinant wild type HIV strain recIIIb was used as a reference HIV virus.

[2] = test system: recombinant virus from patient viral RNA (Example 12); test: Recombinant virus assay (MT4/MTT), patient of Example 12 (therapy history RT and protease inhibitors); details: for IC50: Human immunodeficiency virus 1, Table 8, Example 12 patient virus
Procedure: as §1, §2, §3, §4, §5, §6
An HIV infected patient with a therapy history including RT and protease inhibitors donated plasma whose susceptibility to a number of RT inhibitors and protease inhibitors was determined according to the protocol set out in Example 1.

[3] = test system: Recombinant wild type HIV strain recIIIB; test: Antiviral MT4/MTT assay with reference virus recIIIB; details: read-out: Anti-HIV-1 activity IC50 (μM) recIIIB ref (2)
Procedure: as §4, §5, §6

[4] = test system: recombinant virus from patient viral RNA (Example 10, drug-naive patient); test: Recombinant virus assay (MT4/MTT), drug-naive patient of Example 10; details: for IC50: Human immunodeficiency virus 1, Table 6, Example 10 patient virus
Procedure: as §1, §2, §3, §4, §5, §6
A drug-naive HIV-infected patient donated plasma whose susceptibility to a number of RT inhibitors and protease inhibitors was determined according to the protocol set out in Example 1. Recombinant wild type HIV strain recIIIB was used as a reference HIV virus.

[5] = MT4 cells, read-out: Anti-HIV-1 activity IC50 (μM) Exp. 1
[6] = MT4 cells, read-out: Anti-HIV-1 activity IC50 (μM) Exp. 2
[7] = mean, read-out: Anti-HIV-1 activity IC50 (μM) Mean (1)

CC(C)c1nc(CN(C)C(=O)N[C@H](C(=O)N[C@@H](Cc2ccccc2)C[C@H](O)[C@H](Cc2ccccc2)NC(=O)OCc2cncs2)C(C)C)cs1 [ritonavir]
susceptibility of the patient's HIV strain (in words) ([1]; Example 11 patient, conclusion from Table 7): decreased susceptibilty
IC50 [1, 5]: 1.2 µM
IC50 [1, 6]: 1.74 µM
IC50 [1, 7]: 1.47 µM
ratio (1)/(2) ([1]; Table 7, patient mean IC50 / recIIIB IC50, Example 11): 24
susceptibility of the patient's HIV strain (in words) ([2]; Example 12 patient, conclusion from Table 8): decreased susceptibility
IC50 [2, 5]: 1.61 µM
IC50 [2, 6]: 1.53 µM
IC50 [2, 7]: 1.57 µM
ratio (1)/(2) ([2]; Table 8, patient mean IC50 / recIIIB IC50, Example 12): 47
IC50 ([3]; Human immunodeficiency virus 1, Table 6, reference run of Example 10): 0.033 µM
IC50 ([3]; Human immunodeficiency virus 1, Table 7, reference run of Example 11): 0.062 µM
IC50 ([3]; Human immunodeficiency virus 1, Table 8, reference run of Example 12): 0.033 µM
IC50 [4, 5]: 0.022 µM
IC50 [4, 6]: 0.017 µM
IC50 [4, 7]: 0.019 µM
ratio (1)/(2) ([4]; Table 6, patient mean IC50 / recIIIB IC50, Example 10): 0.6
